Measured values reported in patent US20250215029A1 (Recludix Pharma, Inc., priority 2022, published 2025).

Target: T1, pY705-STAT3 in PBMC (Homo sapiens, UniProt P40763)
T1 construct: Cryopreserved Peripheral Blood Mononuclear Cells (PBMC) are from AllCells; host or cells: cryopreserved PBMC
Assay: MSD-pSTAT-PBMC Assay (pSTAT3, IL-6 stimulated)
Type: cell-based
Conditions: PBMC, compound 3 hrs, then 10 ng/mL IL-6 for 10 min; Table 115; read-out: STAT3
How it was run: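 Thawed human PBMC rested overnight in IMDM/10% FBS, then got compound for 3 hrs before a 10 min cytokine pulse: 1 ng/mL IL-4 for pSTAT6, 10 ng/mL IL-6 for pSTAT3. Lysates went to MSD sandwich capture on total STAT6 or STAT3 with phospho-specific detection. IC50 came from background-subtracted, DMSO-normalized signal.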

T1 sequence (P40763 whole entry): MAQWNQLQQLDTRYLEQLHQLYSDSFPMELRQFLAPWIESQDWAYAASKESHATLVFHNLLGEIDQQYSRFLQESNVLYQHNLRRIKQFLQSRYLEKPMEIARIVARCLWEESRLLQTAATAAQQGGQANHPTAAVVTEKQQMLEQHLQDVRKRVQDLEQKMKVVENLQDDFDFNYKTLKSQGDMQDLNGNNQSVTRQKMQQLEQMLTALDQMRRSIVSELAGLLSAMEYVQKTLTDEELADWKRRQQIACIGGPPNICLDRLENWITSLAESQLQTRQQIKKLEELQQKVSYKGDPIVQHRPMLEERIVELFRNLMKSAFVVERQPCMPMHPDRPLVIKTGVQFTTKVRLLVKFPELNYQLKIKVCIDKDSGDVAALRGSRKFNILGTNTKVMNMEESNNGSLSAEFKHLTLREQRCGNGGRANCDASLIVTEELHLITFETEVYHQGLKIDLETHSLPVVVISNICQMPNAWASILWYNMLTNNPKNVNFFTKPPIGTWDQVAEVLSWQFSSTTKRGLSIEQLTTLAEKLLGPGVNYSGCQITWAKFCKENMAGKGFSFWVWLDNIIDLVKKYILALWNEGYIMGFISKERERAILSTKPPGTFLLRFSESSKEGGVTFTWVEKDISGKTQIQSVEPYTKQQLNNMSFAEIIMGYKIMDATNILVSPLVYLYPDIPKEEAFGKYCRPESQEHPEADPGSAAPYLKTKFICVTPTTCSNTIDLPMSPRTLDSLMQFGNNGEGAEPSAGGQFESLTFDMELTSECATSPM

Q: With `CCCOC(=O)[C@H](C)NP(=O)(Cc1ccc2sc(C(=O)N[C@H]3CCC[C@H]4CC[C@@H](C(=O)N5CC(c6cncnc6N6CCC6)C5)N4C3=O)cc2c1)Oc1ccccc1` (stereo partly drawn) [Compound 1019, propyl (((2-(((3S,6S,9aS)-3-(3-(4-(azetidin-1-yl)pyrimidin-5-yl)azetidine-1-carbonyl)-5-oxooctahydro-1H-pyrrolo[1,2-a]azepin-6-yl)carbamoyl)benzo [b]thiophen-5-yl)methyl)(phenoxy)phosphoryl)-L-alaninate] as the molecule, how does the IC50 read?
A: Its IC50 is under 100 nM.

Q: `CCCOC(=O)[C@H](C)NP(=O)(Oc1ccccc1)C(F)c1ccc2sc(C(=O)N[C@H]3CCCC[C@H]4CC[C@@H](C(=O)N5CC(NCC(F)F)(c6ccccn6)C5)N4C3=O)cc2c1` (stereo partly drawn) [Compound 1020, propyl (((2-(((3S,6S,10aS)-3-(3-((2,2-difluoroethyl)amino)-3-(pyridin-2-yl)azetidine-1-carbonyl)-5-oxodecahydropyrrolo [1,2-a]azocin-6-yl)carbamoyl)benzo [b]thiophen-5-yl)fluoromethyl) (phenoxy)phosphoryl)-L-alaninate] was tested. Which IC50 did it give?
A: Its IC50 is under 100 nM.

Q: With `CCCOC(=O)[C@H](C)NP(=O)(Cc1ccc2sc(C(=O)N[C@H]3C[C@@H](C)C[C@H]4CC[C@@H](C(=O)N5CC(c6cnccc6N(C)C)C5)N4C3=O)cc2c1)Oc1ccccc1` (stereo partly drawn) [Compound 1021, propyl (((2-(((3S,6S,8R,9aR)-3-(3-(4-(dimethylamino)pyridin-3-yl)azetidine-1-carbonyl)-8-methyl-5-oxooctahydro-1H-pyrrolo[1,2-a]azepin-6-yl)carbamoyl)benzo [b]thiophen-5-yl)methyl)(phenoxy)phosphoryl)-L-alaninate] as the molecule, how does the IC50 read?
A: The IC50 was under 100 nM.

Q: With `CCCOC(=O)[C@H](C)NP(=O)(Oc1ccccc1)[C@@H](F)c1ccc2sc(C(=O)N[C@H]3CCC[C@H]4CC[C@@H](C(=O)N5CC(c6cncc(F)c6N(C)C)C5)N4C3=O)cc2c1` (stereo partly drawn) [Compound 1022, propyl (((R)-(2-(((3S,6S,9aS)-3-(3-(4-(dimethylamino)-5-fluoropyridin-3-yl)azetidine-1-carbonyl)-5-oxooctahydro-1H-pyrrolo[1,2-a]azepin-6-yl)carbamoyl)benzo [b]thiophen-5-yl)fluoromethyl) (phenoxy)phosphoryl)-L-alaninate] as the molecule, how does the IC50 read?
A: The IC50 was under 100 nM.

Q: Which IC50 does the source give for `CCCOC(=O)[C@H](C)NP(=O)(Oc1ccccc1)[C@H](F)c1ccc2sc(C(=O)N[C@H]3CCC[C@H]4CC[C@@H](C(=O)N5CC(c6cnccc6N6CCC6)C5)N4C3=O)cc2c1` (stereo partly drawn) [Compound 1024, propyl (((S)-(2-(((3S,6S,9aS)-3-(3-(4-(azetidin-1-yl)pyridin-3-yl)azetidine-1-carbonyl)-5-oxooctahydro-1H-pyrrolo[1,2-a]azepin-6-yl)carbamoyl)benzo [b]thiophen-5-yl)fluoromethyl) (phenoxy)phosphoryl)-L-alaninate] here?
A: Its IC50 is 100 to 1000 nM.

Q: Which IC50 does the source give for `CCCOC(=O)[C@H](C)NP(=O)(Cc1ccc2sc(C(=O)N[C@H]3CCC[C@H]4CC[C@@H](C(=O)N5CC(c6cnccc6N(C)C)C5)N4C3=O)cc2c1)OCC(F)(F)F` (stereo partly drawn) [Compound 1025, propyl (((2-(((3S,6S,9aS)-3-(3-(4-(dimethylamino)pyridin-3-yl)azetidine-1-carbonyl)-5-oxooctahydro-1H-pyrrolo[1,2-a]azepin-6-yl)carbamoyl)benzo [b]thiophen-5-yl)methyl)(2,2,2-trifluoroethoxy)phosphoryl)-L-alaninate] here?
A: Its IC50 is under 100 nM.

Q: With `CCCOC(=O)[C@H](C)NP(=O)(Oc1ccccc1)[C@@H](F)c1ccc2sc(C(=O)N[C@H]3CCC[C@H]4CC[C@@H](C(=O)N5CC(c6cncc(F)c6NC)C5)N4C3=O)cc2c1` (stereo partly drawn) [Compound 1026, propyl (((R)-fluoro(2-(((3S,6S,9aS)-3-(3-(5-fluoro-4-(methylamino)pyridin-3-yl)azetidine-1-carbonyl)-5-oxooctahydro-1H-pyrrolo[1,2-a]azepin-6-yl)carbamoyl)benzo [b]thiophen-5-yl)methyl)(phenoxy)phosphoryl)-L-alaninate] as the molecule, how does the IC50 read?
A: Its IC50 is under 100 nM.

Q: `CCCOC(=O)[C@H](C)NP(=O)(Oc1ccccc1)[C@@H](F)c1ccc2sc(C(=O)N[C@H]3CCC[C@H]4CC[C@@H](C(=O)N5CC(c6cnccc6N6CCC6)C5)N4C3=O)cc2c1` (stereo partly drawn) [Compound 1028, propyl (((R)-(2-(((3S,6S,9aS)-3-(3-(4-(azetidin-1-yl)pyridin-3-yl)azetidine-1-carbonyl)-5-oxooctahydro-1H-pyrrolo[1,2-a]azepin-6-yl)carbamoyl)benzo [b]thiophen-5-yl)fluoromethyl) (phenoxy)phosphoryl)-L-alaninate] was tested. Which IC50 did it give?
A: Its IC50 is 100 to 1000 nM.

Q: With `CCCOC(=O)[C@H](C)NP(=O)(Oc1ccccc1)[C@@H](F)c1ccc2sc(C(=O)N[C@H]3C[C@@H](C)C[C@H]4CC[C@@H](C(=O)N5CC(c6cnccc6N(C)C)C5)N4C3=O)cc2c1` (stereo partly drawn) [Compound 1029, propyl (((R)-(2-(((3S,6S,8R,9aR)-3-(3-(4-(dimethylamino)pyridin-3-yl)azetidine-1-carbonyl)-8-methyl-5-oxooctahydro-1H-pyrrolo[1,2-a]azepin-6-yl)carbamoyl)benzo [b]thiophen-5-yl)fluoromethyl) (phenoxy)phosphoryl)-L-alaninate] as the molecule, how does the IC50 read?
A: Its IC50 is under 100 nM.

Q: How did the IC50 turn out when `CCCOC(=O)[C@H](C)NP(=O)(Oc1ccccc1)[C@@H](F)c1ccc2sc(C(=O)N[C@H]3CCC[C@H]4CC[C@@H](C(=O)N[C@H]5CN(c6ncc[nH]6)C[C@@H]5F)N4C3=O)cc2c1` (stereo partly drawn) [Compound 1030, propyl (((R)-fluoro(2-(((3S,6S,9aS)-3-(((3S,4S)-4-fluoro-1-(1H-imidazol-2-yl)pyrrolidin-3-yl)carbamoyl)-5-oxooctahydro-1H-pyrrolo[1,2-a]azepin-6-yl)carbamoyl)benzo [b]thiophen-5-yl)methyl)(phenoxy)phosphoryl)-L-alaninate] was run?
A: Its IC50 is over 3000 nM.

Q: With `CCCOC(=O)[C@H](C)NP(=O)(Cc1ccc2sc(C(=O)N[C@H]3CCC[C@H]4CC[C@@H](C(=O)N5CC(c6cnccc6N6CCC6)C5)N4C3=O)cc2c1)Oc1ccccc1` (stereo partly drawn) [Compound 1031, propyl (((2-(((3S,6S,9aS)-3-(3-(4-(azetidin-1-yl)pyridin-3-yl)azetidine-1-carbonyl)-5-oxooctahydro-1H-pyrrolo[1,2-a]azepin-6-yl)carbamoyl)benzo [b]thiophen-5-yl)methyl)(phenoxy)phosphoryl)-L-alaninate] as the molecule, how does the IC50 read?
A: Its IC50 is under 100 nM.

Q: With `CCCOC(=O)[C@H](C)NP(=O)(Cc1ccc2sc(C(=O)N[C@H]3CCC[C@H]4CC[C@@H](C(=O)N5CC(c6cnccc6N6CCOCC6)C5)N4C3=O)cc2c1)Oc1ccccc1` (stereo partly drawn) [Compound 1038, propyl (((2-(((3S,6S,9aS)-3-(3-(4-morpholinopyridin-3-yl)azetidine-1-carbonyl)-5-oxooctahydro-1H-pyrrolo[1,2-a]azepin-6-yl)carbamoyl)benzo [b]thiophen-5-yl)methyl)(phenoxy)phosphoryl)-L-alaninate] as the molecule, how does the IC50 read?
A: The IC50 was under 100 nM.

Q: For `CCCOC(=O)[C@H](C)NP(=O)(Oc1ccccc1)C(F)c1ccc2sc(C(=O)N[C@H]3CCC[C@H]4CC[C@@H](C(=O)N5CC(c6cncnc6OC)C5)N4C3=O)cc2c1` (stereo partly drawn) [Compound 1042, propyl ((fluoro(2-(((3S,6S,9aS)-3-(3-(4-methoxypyrimidin-5-yl)azetidine-1-carbonyl)-5-oxooctahydro-1H-pyrrolo[1,2-a]azepin-6-yl)carbamoyl)benzo [b]thiophen-5-yl)methyl)(phenoxy)phosphoryl)-L-alaninate], which IC50 is on record?
A: The IC50 was 100 to 1000 nM.

Q: For `CCCOC(=O)[C@H](C)NP(=O)(Oc1ccccc1)C(F)c1ccc2sc(C(=O)N[C@H]3CCC[C@H]4CC[C@@H](C(=O)N5CC(c6cncnc6N(C)C)C5)N4C3=O)cc2c1` (stereo partly drawn) [Compound 1043], which IC50 is on record?
A: The IC50 was under 100 nM.

Q: With `CCCOC(=O)[C@H](C)NP(=O)(Oc1ccccc1)[C@@H](F)c1ccc2sc(C(=O)N[C@H]3CCC[C@H]4CC[C@@H](C(=O)N5CC(c6cncc(F)c6O)C5)N4C3=O)cc2c1` (stereo partly drawn) [Compound 1060, propyl (((R)-fluoro(2-(((3S,6S,9aS)-3-(3-(5-fluoro-4-hydroxypyridin-3-yl)azetidine-1-carbonyl)-5-oxooctahydro-1H-pyrrolo[1,2-a]azepin-6-yl)carbamoyl)benzo [b]thiophen-5-yl)methyl)(phenoxy)phosphoryl)-L-alaninate] as the molecule, how does the IC50 read?
A: Its IC50 is 100 to 1000 nM.

Q: With `CCCOC(=O)[C@H](C)NP(=O)(Oc1ccccc1)[C@H](F)c1ccc2sc(C(=O)N[C@H]3CCC[C@H]4CC[C@@H](C(=O)N5CC(c6cnccc6N6CC(C#N)C6)C5)N4C3=O)cc2c1` (stereo partly drawn) [Compound 1061, propyl (((S)-(2-(((3S,6S,9aS)-3-(3-(4-(3-cyanoazetidin-1-yl)pyridin-3-yl)azetidine-1-carbonyl)-5-oxooctahydro-1H-pyrrolo[1,2-a]azepin-6-yl)carbamoyl)benzo [b]thiophen-5-yl)fluoromethyl) (phenoxy)phosphoryl)-L-alaninate] as the molecule, how does the IC50 read?
A: Its IC50 is 100 to 1000 nM.

Q: `CCCOC(=O)[C@H](C)NP(=O)(Oc1ccccc1)[C@@H](F)c1ccc2sc(C(=O)N[C@H]3CCC[C@H]4CC[C@@H](C(=O)N5CC(c6cnccc6N6CC(OC)C6)C5)N4C3=O)cc2c1` (stereo partly drawn) [Compound 1062, propyl (((R)-fluoro(2-(((3S,6S,9aS)-3-(3-(4-(3-methoxyazetidin-1-yl)pyridin-3-yl)azetidine-1-carbonyl)-5-oxooctahydro-1H-pyrrolo[1,2-a]azepin-6-yl)carbamoyl)benzo [b]thiophen-5-yl)methyl)(phenoxy)phosphoryl)-L-alaninate] was tested. Which IC50 did it give?
A: The IC50 was 100 to 1000 nM.

Q: `CCCOC(=O)[C@H](C)NP(=O)(Oc1ccccc1)[C@H](F)c1ccc2sc(C(=O)N[C@H]3CCC[C@H]4CC[C@@H](C(=O)N5CC(c6cnccc6N6CC(OC)C6)C5)N4C3=O)cc2c1` (stereo partly drawn) [Compound 1063, propyl (((S)-fluoro(2-(((3S,6S,9aS)-3-(3-(4-(3-methoxyazetidin-1-yl)pyridin-3-yl)azetidine-1-carbonyl)-5-oxooctahydro-1H-pyrrolo[1,2-a]azepin-6-yl)carbamoyl)benzo [b]thiophen-5-yl)methyl)(phenoxy)phosphoryl)-L-alaninate] was tested. Which IC50 did it give?
A: Its IC50 is under 100 nM.
